Columns and labels:
MV4-11 (leukemia) cells = test: In vitro cell proliferation inhibition assay (CellTiter-Glo), MV4-11; assay type: cell-based, human; details: MV4-11 cells
Procedure: (§1) By detecting the effect of compound on cell activity in vitro in the tumor cell lines TOV21G (ovarian cancer) and MV4-11 (leukemia), the effect of compound inhibiting cell proliferation was studied in this assay.
(§2) TOV21G cells and MV4-11 cells were purchased from American Type Culture Collection (ATCC).
MV-4-11 cells were cultured in IMDM medium (containing 20% FBS), each well of a 96-well culture plate was inoculated with about 10000 cells, and treated with different concentrations (0-10 μM) of compounds to be tested in triplex. Blank wells (containing medium only) and control wells (inoculated with cells but not treated with drug) were set. Cells were cultured for 120 hours, 40 μL Cell Titer-Glo solution was added to each well, incubated with shaking for 20 min in the dark, 100 μL solution was transferred from each well to a 96-well white plate, and the luminescence value was read by Biotek Synergy H1 multifunctional microplate reader. Inhibition rate (%)=100%×(control well−test well)/(control well−blank well)

[1] = tested on: TOV21G (ovarian cancer) cells; test: In vitro cell proliferation inhibition assay (CellTiter-Glo), TOV21G; assay type: cell-based, human; details: 120 hours
Procedure: as §1, §2
TOV21G cells were cultured in MCDB105/M199 medium (containing 15% […]), and used for testing when the cell confluence reaches 85% or more. Each well of a 96-well culture plate was inoculated with about 1000 cells, cultured for 24 hours, and treated with different concentrations (0-10 μM) of compound solution to be tested in triplex. Blank wells (contains medium only) and control wells (seeded cells was not treated with drug) were set. Cells were cultured for 120 hours, 40 μL Cell Titer-Glo solution (Promega, #G7573) were added to each well, incubated with shaking for 20 min in the dark, 100 μL solution was transferred from each well to a 96-well white plate (Corning, #3917), and the luminescence value was read by Biotek Synergy H1 multifunctional microplate reader.

ATR kinase = ATR kinase (Homo sapiens (Human), UniProt Q13535); test: ATR kinase activity assay (time-resolved fluorescence, p53 substrate phosphorylation); assay type: biochemical
Sequence of ATR kinase (Q13535 whole entry): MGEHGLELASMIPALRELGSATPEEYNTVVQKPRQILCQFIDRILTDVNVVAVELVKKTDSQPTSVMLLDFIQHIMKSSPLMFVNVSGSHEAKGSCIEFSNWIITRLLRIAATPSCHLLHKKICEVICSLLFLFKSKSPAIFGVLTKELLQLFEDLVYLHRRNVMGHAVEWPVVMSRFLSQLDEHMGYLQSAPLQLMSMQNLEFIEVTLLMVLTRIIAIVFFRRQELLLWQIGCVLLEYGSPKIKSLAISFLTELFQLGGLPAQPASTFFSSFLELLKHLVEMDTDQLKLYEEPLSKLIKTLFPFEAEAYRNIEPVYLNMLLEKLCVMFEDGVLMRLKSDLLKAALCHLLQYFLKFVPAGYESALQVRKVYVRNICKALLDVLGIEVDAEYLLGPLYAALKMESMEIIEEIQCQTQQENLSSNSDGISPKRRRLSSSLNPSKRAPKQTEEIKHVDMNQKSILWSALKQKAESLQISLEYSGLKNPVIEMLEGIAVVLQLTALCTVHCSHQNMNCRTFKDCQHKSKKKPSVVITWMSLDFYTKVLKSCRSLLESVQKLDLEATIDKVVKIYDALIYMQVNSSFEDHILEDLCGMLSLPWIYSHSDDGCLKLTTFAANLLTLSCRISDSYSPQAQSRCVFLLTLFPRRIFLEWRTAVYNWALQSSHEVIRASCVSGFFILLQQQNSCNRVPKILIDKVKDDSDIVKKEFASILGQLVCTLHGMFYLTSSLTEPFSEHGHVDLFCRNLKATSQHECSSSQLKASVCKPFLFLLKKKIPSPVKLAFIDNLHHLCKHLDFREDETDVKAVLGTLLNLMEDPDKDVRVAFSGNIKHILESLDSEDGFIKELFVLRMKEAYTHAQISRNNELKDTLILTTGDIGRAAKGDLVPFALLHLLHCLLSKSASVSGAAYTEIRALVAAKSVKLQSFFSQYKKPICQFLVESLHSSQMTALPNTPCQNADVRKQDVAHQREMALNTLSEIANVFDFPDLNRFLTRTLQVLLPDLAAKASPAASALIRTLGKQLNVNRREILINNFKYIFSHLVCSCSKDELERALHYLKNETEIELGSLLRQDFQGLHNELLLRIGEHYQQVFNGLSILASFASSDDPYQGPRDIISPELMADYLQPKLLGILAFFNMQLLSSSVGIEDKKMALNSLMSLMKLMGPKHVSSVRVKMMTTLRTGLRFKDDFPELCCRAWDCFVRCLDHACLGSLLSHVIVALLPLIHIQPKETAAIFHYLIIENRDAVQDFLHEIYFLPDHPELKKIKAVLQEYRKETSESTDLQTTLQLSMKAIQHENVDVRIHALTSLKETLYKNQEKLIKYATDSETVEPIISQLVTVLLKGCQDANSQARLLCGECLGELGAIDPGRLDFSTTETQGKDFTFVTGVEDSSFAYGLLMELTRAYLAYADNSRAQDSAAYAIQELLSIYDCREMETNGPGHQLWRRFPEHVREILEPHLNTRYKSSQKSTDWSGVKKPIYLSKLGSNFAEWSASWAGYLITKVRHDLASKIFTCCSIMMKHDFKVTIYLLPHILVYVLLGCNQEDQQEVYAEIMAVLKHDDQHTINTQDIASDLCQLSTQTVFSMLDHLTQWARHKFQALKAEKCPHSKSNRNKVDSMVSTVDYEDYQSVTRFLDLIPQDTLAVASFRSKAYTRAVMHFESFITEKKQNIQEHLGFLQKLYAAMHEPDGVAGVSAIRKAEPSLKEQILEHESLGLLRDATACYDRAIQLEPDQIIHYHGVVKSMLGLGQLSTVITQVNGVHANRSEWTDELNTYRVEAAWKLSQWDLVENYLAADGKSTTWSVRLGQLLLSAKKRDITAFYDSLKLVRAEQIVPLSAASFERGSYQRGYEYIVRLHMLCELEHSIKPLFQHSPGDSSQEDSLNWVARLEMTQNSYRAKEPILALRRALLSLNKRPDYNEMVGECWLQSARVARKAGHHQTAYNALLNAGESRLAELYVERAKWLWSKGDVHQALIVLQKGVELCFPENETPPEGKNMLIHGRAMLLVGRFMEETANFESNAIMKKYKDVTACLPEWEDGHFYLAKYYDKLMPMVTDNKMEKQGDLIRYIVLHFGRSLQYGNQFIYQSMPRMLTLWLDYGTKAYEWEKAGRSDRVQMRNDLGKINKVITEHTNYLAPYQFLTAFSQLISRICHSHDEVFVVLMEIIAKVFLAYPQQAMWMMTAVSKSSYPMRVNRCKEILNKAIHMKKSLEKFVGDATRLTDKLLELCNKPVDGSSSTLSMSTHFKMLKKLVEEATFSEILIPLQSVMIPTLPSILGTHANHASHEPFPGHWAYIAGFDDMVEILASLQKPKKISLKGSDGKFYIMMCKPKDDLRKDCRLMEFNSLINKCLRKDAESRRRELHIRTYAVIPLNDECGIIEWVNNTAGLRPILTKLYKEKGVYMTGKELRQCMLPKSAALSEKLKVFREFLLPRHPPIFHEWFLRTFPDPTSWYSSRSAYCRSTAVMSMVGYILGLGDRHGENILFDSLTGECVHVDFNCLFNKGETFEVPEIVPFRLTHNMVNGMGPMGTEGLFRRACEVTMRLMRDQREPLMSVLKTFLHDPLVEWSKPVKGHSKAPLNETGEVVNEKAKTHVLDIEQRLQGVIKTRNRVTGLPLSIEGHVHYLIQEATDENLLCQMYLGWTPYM
Sequence of ATR kinase (Q8WXE1 whole entry partner): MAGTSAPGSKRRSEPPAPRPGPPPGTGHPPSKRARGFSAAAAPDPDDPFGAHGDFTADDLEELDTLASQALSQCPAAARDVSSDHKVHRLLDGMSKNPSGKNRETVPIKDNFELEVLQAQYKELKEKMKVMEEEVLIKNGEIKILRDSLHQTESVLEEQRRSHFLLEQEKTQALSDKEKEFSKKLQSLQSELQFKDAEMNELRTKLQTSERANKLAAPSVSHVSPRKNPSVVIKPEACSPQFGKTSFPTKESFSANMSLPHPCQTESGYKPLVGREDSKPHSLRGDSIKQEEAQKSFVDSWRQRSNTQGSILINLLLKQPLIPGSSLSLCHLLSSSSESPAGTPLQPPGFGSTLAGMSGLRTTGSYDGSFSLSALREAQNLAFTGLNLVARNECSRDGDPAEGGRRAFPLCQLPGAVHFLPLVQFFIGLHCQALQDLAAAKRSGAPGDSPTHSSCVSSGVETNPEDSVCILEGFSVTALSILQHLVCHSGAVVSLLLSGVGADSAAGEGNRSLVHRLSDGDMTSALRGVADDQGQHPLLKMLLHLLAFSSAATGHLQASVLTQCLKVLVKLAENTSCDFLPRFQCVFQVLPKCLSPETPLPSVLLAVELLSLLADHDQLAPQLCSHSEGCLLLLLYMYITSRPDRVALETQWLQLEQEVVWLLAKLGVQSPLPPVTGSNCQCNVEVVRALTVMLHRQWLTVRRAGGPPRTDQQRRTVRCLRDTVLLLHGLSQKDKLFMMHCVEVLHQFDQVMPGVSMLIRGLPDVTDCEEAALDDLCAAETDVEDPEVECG
Procedure: Biotinylated protein derived from p53 (Eurofins, art. No.: 14-952) was phosphorylated with ATR kinase. The amount of phosphorylated protein was determined by time-resolved fluorescence in this assay. The amount of phosphorylated protein was detected by anti-p53-phospho-(serine 15)-K-specific antibody (Cisbio, art. No.: 61GSTDLA) and d2 labeled anti-GST antibody (Cisbio, art. No. 61P08KAE). Before the experiment, the following working solution was prepared as required: 1× reaction buffer (20 mM HEPES PH8.0, 1% glycerol, 0.01% Brij-35), dilution buffer (20 mM HEPES PH8.0, 1% glycerol, 0.01% Brij-35, 5 mM DTT and 1% BSA), stop solution (20 mM HEPES PH8.0, 1% glycerol, 0.01% Brij-35, 250 mM EDTA), detection buffer (50 mM HEPES pH7.0, 150 mM NaCl, 267 mM KF, 0.1% sodium cholate, 0.01% Tween-20, 0.0125% sodium azide). The reagents used above are purchased from Sigma or Invitrogen, except for those where the manufacturer was mentioned.
Operations are as follows:
4× gradient dilution of compound solutions was prepared with 1× reaction buffer to obtain 9 compound solutions of different concentrations, and 2.5 μL 4× gradient dilution of compound solutions was added to a 384-well analysis plate (784075, Greiner). 4× p53 substrate working solution (40 nM) was prepared with 1× reaction buffer, and 2.5 μL 4× p53 substrate working solution was added to the 384-well analysis plate. 4×ATR/ATRIP working solution (12.8 ng/μL) was prepared with dilution buffer, and 2.5 μL 4×pATR/ATRIP working solution was added to the 384-well analysis plate. 4×ATP working solution (2 mM) was prepared with deionized water, 2.5 μL 4×ATP working solution was added to the 384-well analysis plate, and incubated at room temperature in dark for 30 minutes. 5 μL stop solution was added to the 384 analysis plate. Finally, 5 μL test mixture (0.084 ng/μL Anti-phospho-p53(ser15)-K and 5 ng/μL Anti-GST-d2) was added to the 384 well analysis plate, incubated overnight at room temperature, and the fluorescence signal was detected with ENVISION (Perkinelmer) instrument (excitation wavelength: 320 nm, emission wavelength: 665 nm and 615 nm). The inhibition rate in each well was calculated by the fluorescence intensity value of each hole: ER (Emission Ratio)=(Fluorescence intensity at 665 nm/Fluorescence intensity at 615 nm); inhibition rate=(ER positive-ER test compound)/(ER positive-ER negative)×100%, the IC50 value of compounds were calculated by standard parameter fitting software (GraphPad Prism 6.0).

Row | Compound | IC50 (MV4-11 (leukemia) cells; 120 hours) [nM] | IC50 [1] [nM] | IC50 (ATR kinase) [nM] | IC50 (MV4-11 (leukemia) cells; Homo sapiens, MV4-11, 120 h) [nM] | IC50 ([1]; Homo sapiens) [nM]
1 | Cc1nn(C2CCNCC2)c(C(F)(F)F)c1-c1cc(N2CCOC[C@H]2C)nc(-n2cnc3ccc(F)cc32)n1 [Compound D30b] | 330 | 2220 | 54 | – | –
2 | Cc1nn(C2CCNCC2)c(C(F)(F)F)c1-c1cc(N2CCOC[C@H]2C)nc(-n2c(N)nc3ccccc32)n1 [Compound D6] | – | – | < 1 | 170 | 240
3 | Cc1nn(C(=O)N2CCNCC2)c(C)c1-c1cc(N2CCOC[C@H]2C)nc(-c2cc(F)cc3[nH]ccc23)n1 [Compound D55] | 220 | 190 | 3 | – | –
4 | Cc1nn(C2CCNCC2)c(C(F)(F)F)c1-c1cc(N2CCOC[C@H]2C)nc(-n2cnc3ccccc32)n1 [Compound D46] | 530 | 1330 | 6 | – | –
5 | CNc1nc2cc(F)ccc2n1-c1nc(-c2c(C)nn(C3CCNCC3)c2C(F)(F)F)cc(N2CCOC[C@H]2C)n1 [Compound D10] | – | – | 3 | 330 | 380
6 | CNc1nc2cc(F)ccc2n1-c1nc(-c2c(C(F)(F)F)nn(C3CCNCC3)c2C)cc(N2CCOC[C@H]2C)n1 [Compound D16] | 1360 | 1050 | 82 | – | –
7 | Cc1nn(C2CCNCC2)c(C(F)(F)F)c1-c1cc(C23CCOCC2C3)nc(-c2cc(F)cc3[nH]ccc23)n1 (stereo not shown) [Compound D49] | 550 | 500 | 2 | – | –
8 | CNc1nc2ccccc2n1-c1nc(-c2c(C)nn(CS(C)(=O)=O)c2C(F)(F)F)cc(N2CCOC[C@H]2C)n1 [Compound D43] | – | – | 19 | 540 | 210
9 | CNc1nc2ccccc2n1-c1nc(-c2c(C(F)(F)F)nn(CS(C)(=O)=O)c2C)cc(N2CCOC[C@H]2C)n1 [Compound D44] | – | – | 34 | 680 | 790
10 | Cc1c(-c2cc(N3CCOC[C@H]3C)nc(-c3cc(F)cc4[nH]ccc34)n2)c(C(F)(F)F)nn1C1CCNCC1 [Compound D47] | 550 | 600 | 5 | – | –
11 | Cc1nn(C2CCNCC2(F)F)c(C)c1-c1cc(N2CCOC[C@H]2C)nc(-c2ccnc3[nH]ccc23)n1 (stereo partly shown) [Compound D57] | 220 | 410 | 16 | – | –
12 | CNc1nc2cc(F)ccc2n1-c1nc(-c2c(C)nn(CC3(C)COC3)c2C(F)(F)F)cc(N2CCOC[C@H]2C)n1 [Compound D51] | 660 | 680 | 32 | – | –
13 | Cc1c(-c2cc(N3CCOC[C@H]3C)nc(-c3ccnc4[nH]ccc34)n2)c(C(F)(F)F)nn1C1CCCNC1 (stereo partly shown) [Compound D12] | – | – | 3 | 290 | 280
14 | Cc1nn(C2CCNCC2)c(C(F)(F)F)c1-c1cc(N2CCOC[C@H]2C)nc(-n2cnc3cc(F)ccc32)n1 [Compound D30a] | 410 | 2090 | 16 | – | –
15 | COc1cc(-c2nc(-c3c(C)nn(C4CCNCC4)c3C(F)(F)F)cc(N3CCOC[C@H]3C)n2)c2cc[nH]c2n1 [Compound D3] | 290 | 280 | 31 | – | –
16 | Cc1c(-c2cc(N3CCOC[C@H]3C)nc(-c3cc(F)cc4[nH]ccc34)n2)c(C(F)(F)F)nn1C1CC2(CNC2)C1 [Compound D50] | 810 | – | 3 | – | –
17 | Cc1nn(C2CCNCC2)c(C(F)(F)F)c1-c1cc(N2CCOC[C@H]2C)nc(-n2c(NC(=O)C3CC3)nc3ccccc32)n1 [Compound D38] | 230 | 140 | 5 | – | –
18 | CNc1nc2ccccc2n1-c1nc(-c2c(C)nn(CC3CCCNC3)c2C(F)(F)F)cc(N2CCOC[C@H]2C)n1 (stereo partly shown) [Compound D40] | – | – | 5 | 580 | 720
19 | Cc1c(-c2cc(N3CCOC[C@H]3C)nc(-c3cncc4[nH]ccc34)n2)c(C(F)(F)F)nn1C1CCNCC1 [Compound D20] | – | – | < 1 | 70 | 160
20 | CNc1nc2cc(F)ccc2n1-c1nc(-c2c(C)nn(C3CCNCC3)c2C(F)(F)F)c(F)c(N2CCOC[C@H]2C)n1 [Compound D27] | 970 | 720 | 8 | – | –
21 | Cc1nn(C2CCNCC2)c(C(F)(F)F)c1-c1cc(N2CCOC[C@H]2C)nc(-n2c(N)nc3cc(F)ccc32)n1 [Compound D7] | – | – | 1 | 310 | 460
22 | COc1c(-c2cc(N3CCOC[C@H]3C)nc(-c3ccnc4[nH]ccc34)n2)c(C(F)(F)F)nn1C1CCN(C)CC1 [Compound D14] | – | – | 28 | 810 | 1200
23 | Cc1c(-c2cc(N3CCOC[C@H]3C)nc(-c3ccnc4[nH]ccc34)n2)c(C(F)(F)F)nn1C1CCCNC1 (single isomer, unassigned) [Compound D13] | – | – | < 1 | 250 | 800

Now from value to molecule:

Row | IC50 (MV4-11 (leukemia) cells; 120 hours) [nM] | IC50 [1] [nM] | IC50 (ATR kinase) [nM] | IC50 (MV4-11 (leukemia) cells; Homo sapiens, MV4-11, 120 h) [nM] | IC50 ([1]; Homo sapiens) [nM] | Compound
24 | – | – | 4 | 90 | 180 | Cc1nn([C@H]2CCNCC2(F)F)c(C)c1-c1cc(N2CCOC[C@H]2C)nc(-c2cc(F)cc3[nH]ccc23)n1 [Compound D54a]
25 | – | – | – | 990 | 1030 | CNc1nc2cc(Cl)ccc2n1-c1nc(-c2c(C)nn(C3CCNCC3)c2C(F)(F)F)cc(N2CCOC[C@H]2C)n1 [Compound D25]
26 | – | – | 13 | 260 | 440 | Cc1nn([C@@H]2CCNCC2(F)F)c(C)c1-c1cc(N2CCOC[C@H]2C)nc(-c2cc(F)cc3[nH]ccc23)n1 [Compound D54b]
27 | – | – | 6 | 780 | 920 | Cc1c(-c2cc(N3CCOC[C@H]3C)nc(-c3ccnc4[nH]ccc34)n2)c(C(F)(F)F)nn1C1CCNCC1 [Compound D2]
28 | 620 | 710 | 4 | – | – | Cc1nn(C[C@H]2CCCN2)c(C(F)(F)F)c1-c1cc(N2CCOC[C@H]2C)nc(-c2cc(F)cc3[nH]ccc23)n1 [Compound D53]
29 | 690 | 580 | 8 | – | – | CCNc1nc2cc(F)ccc2n1-c1nc(-c2c(C)nn(C3CCNCC3)c2C(F)(F)F)cc(N2CCOC[C@H]2C)n1 [Compound D23]
30 | 370 | 640 | 8 | – | – | Cc1nn(C2CCNCC2)c(C(F)(F)F)c1-c1nc(-c2ccnc3[nH]ccc23)nc(N2CCOC[C@H]2C)c1F [Compound D11]
31 | – | – | 16 | 920 | 850 | CNc1nc2ccc(F)cc2n1-c1nc(-c2c(C)nn(C3CCNCC3)c2C(F)(F)F)cc(N2CCOC[C@H]2C)n1 [Compound D22]
32 | 200 | 550 | 2 | – | – | CNc1nc2ccccc2n1-c1nc(-c2c(C)nn(C3CCNCC3)c2C(F)(F)F)cc(C23CCOCC2C3)n1 (stereo not shown) [Compound D48]
33 | 320 | 440 | 9 | – | – | CNc1nc2ccccc2n1-c1nc(-c2c(C(F)(F)F)nn(C3CCNCC3)c2C)cc(N2CCOC[C@H]2C)n1 [Compound D56]
34 | – | – | 1 | 80 | 110 | Cc1nn(C2CCNCC2)c(C(F)(F)F)c1-c1cc(N2CCOC[C@H]2C)nc(-c2cncc3[nH]ccc23)n1 [Compound D19]
